Experiments:
Dunaliella cells = test: Trehalose loading of Dunaliella, shelf storage and recovery in fresh medium; assay type: cell-based, D. salina; details: 0.5 and 1.0 M trehalose
Protocol: First, cells in log phase are spun down at 1500×g for 10 minutes. Supernatant is decanted and the pellet is gently re-suspended in a minimal volume of medium and placed in a 1 L flask. The cell count of the slurry is 1.776×10^8 cells/ml. Next, four 50 ml tubes are prepared with aliquots of 21 ml of slurry in each tube prior to re-suspension, in a defined extracellular concentration of α-trehalose (α-D-glycosyl-α-D-glycosylpyranoside, Hayashibara Co., in Melis medium at a salinity of 1.0 M NaCl (referred to as 1M Melis). The cells are then spun down again and the pellets are re-suspended in 200 ml of treatment medium, that is, 1M Melis with or without added trehalose. The four preservation treatments in 1M Melis are performed in the following four sets in triplicate: no trehalose ([…]), 0.5M trehalose, 1.0M trehalose, and 2.0M trehalose. The cell density after re-suspension is at 1.865×10^7 cells/ml. During the re-suspension of cell pellets in 1M Melis, 2.0M trehalose, the pellet is not completely broken apart, yielding visible clumps in the suspension. After the re-suspension, cells are transferred to 250 ml flasks and left on the shelf at a temperature of 23-27° C. and light Intensity <5 μE/m^2-sec, without any agitation or aeration. […]

Chlorella (KAS503) = test: Trehalose preservation, storage as liquid in sponge matrix; assay type: cell-based
Protocol: (§1) Flask cultures (40 ml) of cells are grown to mid-log phase with a density between 3×10^6 and 3×10^7 cells/ml, and are centrifuged. Culture medium is removed after centrifugation, resulting in more concentrated algae cells. Cells are then re-suspended in fresh medium and left overnight. Cells are centrifuged again the next day in order to remove the medium, and are then re-suspended in fresh or salt water without any nutrient. The cell density of the suspension is determined prior to storage under the various treatments. Cells in 40 ml flask cultures are grown to mid-log phase with a density of between 3×10^6 and 3×10^7 cells/ml, and are centrifuged. Culture medium is removed after centrifugation, resulting in more concentrated algae cells. Cells are then re-suspended in ideal glass solution consisting of fresh culture medium and trehalose at a concentration of 0.1M, 0.3M, and 0.5M (dihydrate trehalose 100 from Hayashibara Co. Ltd, Okayama, Japan), respectively, and left overnight with mild agitation. Cells are centrifuged again to remove the ideal glass solution the next day, and are re-suspended in fresh or salt water without any nutrient. The cell density of the resulting suspension is determined prior to storage under the various treatments. (Some cells were also treated with a 0.5M sorbitol solution). In one specific embodiment, non-toxic sponges made of polyurethane matrix ([…]-plugs® from Jaece Industries, Fisher Scientific 14-127-40B), 20 mm in diameter, are cut in half length-wise to fit the wells in the BD Falcon 12-well tissue culture plates and autoclave sterilized. One sponge is placed in each well of the tissue culture plate. 2.0 ml algae cell suspension is pipetted into each well, and the sponge is squeezed with sterile forceps to produce a faster uptake of the cell suspension into the sponge. Plates are subsequently closed and placed under low light and at ambient temperature. After stored under the above preservation conditions for 5 months, algae cells can be rejuvenated by squeezing the sponges with sterile forceps to allow a complete uptake of all cells in the suspension, including those cells not in the sponge such as cells remaining in the well. Cells in the sponges are then removed from the 12-well plates and placed in 10 ml of fresh medium under light. Cell viability is determined by comparing the cell growth in control set with the experimental set. Specifically, cell counts are performed on all samples. The averaged density value (in cells per ml) for all the cultures after treatment is defined as “rejuvenation cell count.” In some samples, the percent recovery of cells immediately after storage is also determined. The formulae are illustrated as follows: Growth=(rejuvenation cell count)/(initial cell count) Cell recovery after storage=(cell density after storage)/(initial cell density), with controls set at 100% cell recovery. Viability after storage and rejuvenation in nutrient medium=(Growth of treatment)/(Growth of control)×100%, with controls set at 100% viability

Chlorella (KAS603) = test: as above; assay type: cell-based
Protocol: as §1

Tetraselmis KAS633 = test: as above; assay type: cell-based
Protocol: as §1

[1] = 0.5M trehalose in F/2, 20 weeks storage in water (no nutrients)
[2] = 0.5M trehalose in F/2, 20 weeks storage, final/initial density
[3] = 0.5M trehalose in F/2, 20 weeks storage, 0M control = 100%

## OC[C@H]1O[C@H](O[C@H]2O[C@H](CO)[C@@H](O)[C@H](O)[C@H]2O)[C@H](O)[C@@H](O)[C@@H]1O [trehalose, α-D-glycosyl-α-D-glycosylpyranoside]
Dunaliella cells; 4.5-week period, FIG. 3
  Functional recovery: exhibit functional recovery
Dunaliella cells; 8-week period, no cell growth observed
  Functional recovery: negligible functional recovery
Chlorella (KAS503); [1]
  Final density after storage and 3 weeks rejuvenation: 6.565 × 10^7 cells/ml
Chlorella (KAS503); [2]
  Growth: 2.88
Chlorella (KAS603); [1]
  Final density after storage and 3 weeks rejuvenation: 2.246 × 10^7 cells/ml
Chlorella (KAS603); [3]
  % Viability: (193%)
Chlorella (KAS603); [2]
  Growth: 0.81
Tetraselmis KAS633; [1]
  Final density after storage and 3 weeks rejuvenation: 2.031 × 10^6 cells/ml
Tetraselmis KAS633; [3]
  % Viability: (93%)
Tetraselmis KAS633; [2]
  Growth: 0.14
